± gives the expanded uncertainty stated by the source.
Settings: Liquid, Falling or rolling sphere viscometry

## CCCCCCCCC(=O)OC [methyl nonanoate]
297.15 K, 30034 kPa
  viscosity: 2.11 ± 0.07 mPa·s
297.5 K, 24979 kPa
  viscosity: 2.01 ± 0.06 mPa·s
297.81 K, 20011 kPa
  viscosity: 1.93 ± 0.06 mPa·s
298.08 K, 14977 kPa
  viscosity: 1.83 ± 0.06 mPa·s
298.42 K, 9955 kPa
  viscosity: 1.73 ± 0.05 mPa·s
298.77 K, 4957 kPa
  viscosity: 1.65 ± 0.05 mPa·s
299.19 K, 103 kPa
  viscosity: 1.56 ± 0.05 mPa·s
302.91 K, 24994 kPa
  viscosity: 1.83 ± 0.06 mPa·s
302.95 K, 30000 kPa
  viscosity: 1.91 ± 0.06 mPa·s
303.01 K, 9972 kPa
  viscosity: 1.62 ± 0.05 mPa·s
303.08 K, 4961 kPa
  viscosity: 1.54 ± 0.05 mPa·s
303.09 K, 15047 kPa
  viscosity: 1.68 ± 0.05 mPa·s
303.09 K, 19964 kPa
  viscosity: 1.76 ± 0.06 mPa·s
303.1 K, 106 kPa
  viscosity: 1.46 ± 0.05 mPa·s
312.06 K, 29961 kPa
  viscosity: 1.65 ± 0.05 mPa·s
312.19 K, 25005 kPa
  viscosity: 1.57 ± 0.05 mPa·s
312.27 K, 19968 kPa
  viscosity: 1.5 ± 0.05 mPa·s
312.28 K, 9996 kPa
  viscosity: 1.38 ± 0.04 mPa·s
312.28 K, 14963 kPa
  viscosity: 1.43 ± 0.05 mPa·s
312.32 K, 4993 kPa
  viscosity: 1.32 ± 0.04 mPa·s
312.38 K, 99 kPa
  viscosity: 1.26 ± 0.04 mPa·s
321.26 K, 29949 kPa
  viscosity: 1.42 ± 0.04 mPa·s
321.36 K, 24985 kPa
  viscosity: 1.36 ± 0.04 mPa·s
321.49 K, 19988 kPa
  viscosity: 1.31 ± 0.04 mPa·s
321.56 K, 10020 kPa
  viscosity: 1.2 ± 0.04 mPa·s
321.6 K, 4982 kPa
  viscosity: 1.14 ± 0.04 mPa·s
321.61 K, 15017 kPa
  viscosity: 1.25 ± 0.04 mPa·s
321.64 K, 96 kPa
  viscosity: 1.08 ± 0.03 mPa·s
330.93 K, 30013 kPa
  viscosity: 1.24 ± 0.04 mPa·s
330.94 K, 19996 kPa
  viscosity: 1.14 ± 0.04 mPa·s
331.13 K, 9979 kPa
  viscosity: 1.04 ± 0.03 mPa·s
331.13 K, 25032 kPa
  viscosity: 1.19 ± 0.04 mPa·s
331.2 K, 14998 kPa
  viscosity: 1.09 ± 0.03 mPa·s
331.23 K, 5027 kPa
  viscosity: 0.99 ± 0.03 mPa·s
331.26 K, 108 kPa
  viscosity: 0.94 ± 0.03 mPa·s
340.91 K, 19959 kPa
  viscosity: 0.99 ± 0.03 mPa·s
340.95 K, 25015 kPa
  viscosity: 1.04 ± 0.03 mPa·s
340.96 K, 30009 kPa
  viscosity: 1.08 ± 0.03 mPa·s
341.03 K, 4962 kPa
  viscosity: 0.86 ± 0.03 mPa·s
341.06 K, 10010 kPa
  viscosity: 0.91 ± 0.03 mPa·s
341.14 K, 15019 kPa
  viscosity: 0.94 ± 0.03 mPa·s
341.21 K, 96 kPa
  viscosity: 0.81 ± 0.03 mPa·s
350.73 K, 29961 kPa
  viscosity: 0.96 ± 0.03 mPa·s
350.74 K, 24964 kPa
  viscosity: 0.92 ± 0.03 mPa·s
350.81 K, 14959 kPa
  viscosity: 0.83 ± 0.03 mPa·s
350.86 K, 20020 kPa
  viscosity: 0.87 ± 0.03 mPa·s
350.88 K, 9984 kPa
  viscosity: 0.79 ± 0.03 mPa·s
350.95 K, 4985 kPa
  viscosity: 0.75 ± 0.02 mPa·s
351.04 K, 101 kPa
  viscosity: 0.71 ± 0.02 mPa·s
360.61 K, 25005 kPa
  viscosity: 0.82 ± 0.03 mPa·s
360.67 K, 29996 kPa
  viscosity: 0.85 ± 0.03 mPa·s
360.71 K, 19982 kPa
  viscosity: 0.77 ± 0.02 mPa·s
360.82 K, 9960 kPa
  viscosity: 0.7 ± 0.02 mPa·s
360.86 K, 4959 kPa
  viscosity: 0.66 ± 0.02 mPa·s
360.89 K, 14997 kPa
  viscosity: 0.74 ± 0.02 mPa·s
360.96 K, 98 kPa
  viscosity: 0.62 ± 0.02 mPa·s

## CCCCCC(=O)OC [methyl hexanoate]
292.99 K, 29973 kPa
  viscosity: 1.16 ± 0.04 mPa·s
293.48 K, 25055 kPa
  viscosity: 1.11 ± 0.04 mPa·s
293.98 K, 19999 kPa
  viscosity: 1.06 ± 0.03 mPa·s
294.34 K, 15024 kPa
  viscosity: 1.01 ± 0.03 mPa·s
294.63 K, 9980 kPa
  viscosity: 0.96 ± 0.03 mPa·s
294.75 K, 5079 kPa
  viscosity: 0.92 ± 0.03 mPa·s
294.86 K, 105 kPa
  viscosity: 0.87 ± 0.03 mPa·s
302.79 K, 29963 kPa
  viscosity: 1.01 ± 0.03 mPa·s
302.89 K, 24988 kPa
  viscosity: 0.97 ± 0.03 mPa·s
302.98 K, 19967 kPa
  viscosity: 0.93 ± 0.03 mPa·s
303.01 K, 15014 kPa
  viscosity: 0.89 ± 0.03 mPa·s
303.05 K, 10031 kPa
  viscosity: 0.86 ± 0.03 mPa·s
303.09 K, 5026 kPa
  viscosity: 0.81 ± 0.03 mPa·s
303.12 K, 107 kPa
  viscosity: 0.77 ± 0.02 mPa·s
312.57 K, 29951 kPa
  viscosity: 0.89 ± 0.03 mPa·s
312.62 K, 24986 kPa
  viscosity: 0.85 ± 0.03 mPa·s
312.69 K, 15010 kPa
  viscosity: 0.78 ± 0.02 mPa·s
312.69 K, 20046 kPa
  viscosity: 0.82 ± 0.03 mPa·s
312.7 K, 4988 kPa
  viscosity: 0.71 ± 0.02 mPa·s
312.71 K, 10033 kPa
  viscosity: 0.75 ± 0.02 mPa·s
312.74 K, 103 kPa
  viscosity: 0.68 ± 0.02 mPa·s
321.96 K, 29975 kPa
  viscosity: 0.8 ± 0.03 mPa·s
322.08 K, 9972 kPa
  viscosity: 0.67 ± 0.02 mPa·s
322.12 K, 19979 kPa
  viscosity: 0.74 ± 0.02 mPa·s
322.14 K, 24972 kPa
  viscosity: 0.77 ± 0.02 mPa·s
322.29 K, 98 kPa
  viscosity: 0.61 ± 0.02 mPa·s
322.29 K, 5048 kPa
  viscosity: 0.64 ± 0.02 mPa·s
322.32 K, 15008 kPa
  viscosity: 0.7 ± 0.02 mPa·s
331.74 K, 30010 kPa
  viscosity: 0.72 ± 0.02 mPa·s
331.8 K, 25008 kPa
  viscosity: 0.69 ± 0.02 mPa·s
331.83 K, 14994 kPa
  viscosity: 0.63 ± 0.02 mPa·s
331.89 K, 9984 kPa
  viscosity: 0.6 ± 0.02 mPa·s
331.93 K, 20001 kPa
  viscosity: 0.66 ± 0.02 mPa·s
341.38 K, 29965 kPa
  viscosity: 0.64 ± 0.02 mPa·s
341.39 K, 20015 kPa
  viscosity: 0.59 ± 0.02 mPa·s
341.41 K, 25042 kPa
  viscosity: 0.62 ± 0.02 mPa·s
